# Measured values from PubChem BioAssay (NCI).
#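 Five concentrations, 48 hours, 96-well plates. TGI denotes the concentration required for complete inhibition of growth.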
# Assays:
# Experiment in all cases: NCI-60 cell line screen, 48 h
# SN12C renal = test system: SN12C renal
# SF-295 CNS = test system: SF-295 CNS
# BT-549 breast = test system: BT-549 breast
# UO-31 renal = test system: UO-31 renal
# CAKI-1 renal = test system: CAKI-1 renal
# SK-MEL-2 melanoma = test system: SK-MEL-2 melanoma
# RPMI-8226 leukemia = test system: RPMI-8226 leukemia
# KM12 colon = test system: KM12 colon
# SK-MEL-5 melanoma = test system: SK-MEL-5 melanoma
# PC-3 prostate = test system: PC-3 prostate
# MDA-MB-435 = test system: MDA-MB-435
# SK-MEL-28 melanoma = test system: SK-MEL-28 melanoma
# OVCAR-4 ovarian = test system: OVCAR-4 ovarian
# UACC-257 melanoma = test system: UACC-257 melanoma
# RXF 393 renal = test system: RXF 393 renal
# IGROV1 ovarian = test system: IGROV1 ovarian
# SNB-19 CNS = test system: SNB-19 CNS
# CCRF-CEM leukemia = test system: CCRF-CEM leukemia
# 786-0 renal = test system: 786-0 renal
# A549 NSCLC = test system: A549 NSCLC
# K-562 leukemia = test system: K-562 leukemia
# A498 renal = test system: A498 renal
# MALME-3M melanoma = test system: MALME-3M melanoma
# TK-10 renal = test system: TK-10 renal
# SK-OV-3 ovarian = test system: SK-OV-3 ovarian
# MCF7 breast = test system: MCF7 breast
# NCI-H460 lung = test system: NCI-H460 lung
# HCT-15 colon = test system: HCT-15 colon
# U251 CNS = test system: U251 CNS
# SW-620 colon = test system: SW-620 colon
# HT29 colon = test system: HT29 colon
# SF-539 CNS = test system: SF-539 CNS
# MOLT-4 leukemia = test system: MOLT-4 leukemia
# NCI-H226 lung = test system: NCI-H226 lung
# HOP-62 NSCLC = test system: HOP-62 NSCLC
# NCI-H522 lung = test system: NCI-H522 lung
# NCI-H23 lung = test system: NCI-H23 lung
# HOP-92 NSCLC = test system: HOP-92 NSCLC
# HCT-116 colon = test system: HCT-116 colon
# SNB-75 CNS = test system: SNB-75 CNS
# NCI/ADR-RES ovarian = test system: NCI/ADR-RES ovarian
# UACC-62 melanoma = test system: UACC-62 melanoma
# MDA-MB-231 breast = test system: MDA-MB-231 breast
# OVCAR-8 ovarian = test system: OVCAR-8 ovarian
# ACHN renal = test system: ACHN renal
# EKVX NSCLC = test system: EKVX NSCLC
# COLO 205 colon = test system: COLO 205 colon
# SF-268 CNS = test system: SF-268 CNS
# T-47D breast = test system: T-47D breast
# DU-145 prostate = test system: DU-145 prostate
# HS 578T breast = test system: HS 578T breast
# MDA-N = test system: MDA-N
# M14 melanoma = test system: M14 melanoma
# HCC-2998 colon = test system: HCC-2998 colon
# OVCAR-5 ovarian = test system: OVCAR-5 ovarian
# OVCAR-3 ovarian = test system: OVCAR-3 ovarian
# LOX IMVI melanoma = test system: LOX IMVI melanoma
smiles,measurement,setting,value
COc1ccc(C2CC(c3c(O)ccc4ccccc34)=NN2c2ccc([N+](=O)[O-])cc2[N+](=O)[O-])cc1OC (configuration not stated),TGI,SN12C renal,> 100 µM
same,TGI,SF-295 CNS,> 87.1 µM
same,TGI,BT-549 breast,> 100 µM
same,TGI,UO-31 renal,97.4 µM
same,TGI,CAKI-1 renal,69.1 µM
same,TGI,SK-MEL-2 melanoma,> 65.1 µM
same,TGI,RPMI-8226 leukemia,15.8 µM
same,TGI,KM12 colon,> 76.6 µM
same,TGI,SK-MEL-5 melanoma,30.2 µM
same,TGI,PC-3 prostate,> 70.3 µM
same,TGI,MDA-MB-435,> 100 µM
same,TGI,SK-MEL-28 melanoma,> 100 µM
same,TGI,OVCAR-4 ovarian,> 100 µM
same,TGI,UACC-257 melanoma,> 93.9 µM
same,TGI,RXF 393 renal,> 71.1 µM
same,TGI,IGROV1 ovarian,> 71.2 µM
same,TGI,SNB-19 CNS,> 60.3 µM
same,TGI,CCRF-CEM leukemia,> 50.3 µM
same,TGI,786-0 renal,> 100 µM
same,TGI,A549 NSCLC,98.3 µM
same,TGI,K-562 leukemia,20.2 µM
same,TGI,A498 renal,35.9 µM
same,TGI,MALME-3M melanoma,56.4 µM
same,TGI,TK-10 renal,> 100 µM
same,TGI,SK-OV-3 ovarian,> 88 µM
same,TGI,MCF7 breast,> 91.7 µM
same,TGI,NCI-H460 lung,> 100 µM
same,TGI,HCT-15 colon,> 100 µM
same,TGI,U251 CNS,> 100 µM
same,TGI,SW-620 colon,> 100 µM
same,TGI,HT29 colon,38.3 µM
same,TGI,SF-539 CNS,> 79.8 µM
same,TGI,MOLT-4 leukemia,21.5 µM
same,TGI,NCI-H226 lung,48.9 µM
same,TGI,HOP-62 NSCLC,> 71.7 µM
same,TGI,NCI-H522 lung,> 42.9 µM
same,TGI,NCI-H23 lung,> 85.4 µM
same,TGI,HOP-92 NSCLC,58.7 µM
same,TGI,HCT-116 colon,> 100 µM
same,TGI,SNB-75 CNS,70.8 µM
same,TGI,NCI/ADR-RES ovarian,17.4 µM
same,TGI,UACC-62 melanoma,> 100 µM
same,TGI,MDA-MB-231 breast,> 68.8 µM
same,TGI,OVCAR-8 ovarian,27.3 µM
same,TGI,ACHN renal,92.2 µM
same,TGI,EKVX NSCLC,> 67 µM
same,TGI,COLO 205 colon,49 µM
same,TGI,SF-268 CNS,> 100 µM
same,TGI,T-47D breast,79.7 µM
same,TGI,DU-145 prostate,> 100 µM
same,TGI,HS 578T breast,> 89.7 µM
same,TGI,MDA-N,> 100 µM
same,TGI,M14 melanoma,> 100 µM
same,TGI,HCC-2998 colon,> 100 µM
same,TGI,OVCAR-5 ovarian,> 90.6 µM
same,TGI,OVCAR-3 ovarian,58.3 µM
same,TGI,LOX IMVI melanoma,> 100 µM
